Assay [1] concerns C57BL/6 mice, transient middle cerebral artery occlusion (tMCAO). The assay can be described thus: mouse tMCAO cerebral stroke model (Embodiment 69). It counts as in vivo. Particulars: 3 mg/kg tail vein injection 3 h after reperfusion. The source says: After isoflurane inhalation gas anesthesia of 22-25 g male C57BL/6 mice, the fiber-optic probes of a laser Doppler flowmeter were fixed to the skull of the mice with glue for monitoring the cerebral blood flow of the middle cerebral artery (MCA) supplying cortex. The mice were fixed in the supine position, and the middle of the neck was dehaired and routinely sterilized with 75% alcohol. An approximately 1.5 cm incision was made in the middle of the neck, and the skin of the neck was incised, and the muscle and fascia were separated along the inner edge of the sternocleidomastoideole; the right carotid artery sheath was bluntly separated to expose the right common carotid artery (CCA), external carotid artery (ECA), and internal carotid artery (ICA); after the surgical area was exposed satisfactorily, the CCA and ICA were temporarily clipped with arterial clips, and a small incision was made at the proximal end of the ECA with microsurgical scissors, and a nylon monofilament suture was inserted from the small incision along the ECA, and gently pushed into the intracranial area in the direction of the ICA for about 11.5±0.5 mm, blocking the beginning of the middle cerebral artery. Only the animals whose blood flow values decreased to 20% of the basic value were selected according to the blood flow data monitored by the flowmeter. After 90 minutes of ischemia, the monofilament sutures were gently withdrawn out, the arterial stumps were tied tightly, the surgical wounds were inspected, the bleeding was thoroughly stopped, a small amount of penicillin powder was sprinkled locally to prevent infection, and the subcutaneous tissues and the skin were sutured layer by layer, thus completing the ischemia reperfusion injury model. A heating plate was used to maintain the body temperature of the animals during surgery. After completion of the surgery, the sutured mice were placed in a heat preservation and humidification box until the mice recovered activities. Animals in the sham-operated group were subjected to the same surgical procedure but without middle artery occlusion.
Clean-grade male C57BL/6 mice were randomly divided into five groups, namely, the sham-operated group, the group of the positive control drug Edaravone(3 mg/kg), and the 3 mg/kg dose group of compounds II-1, II-23 and III-1.
The mice were subjected to tail vein injections of Edaravone, II-1, II-23, and III-1 respectively 3 h after modeling and reperfusion; the sham-operated group was injected with an equal volume of saline, and II-1, II-23, III-1, and Edaravone were dissolved in 0.9% saline solution. Neurological function scores and TTC staining of mice were performed 24 h after ischemia-reperfusion, and the results are shown in FIGS. 6, 7 and 8.
The mice were decapitated 24 h after ischemia-reperfusion, the coronal planes of the brains were cut into brain slices of about 2 mm thickness uniformly. The brain slices were placed in 0.25% 2,3,5-triphenyltetrazolium chloride (TTC) solution, incubated at 37° C. Celsius for 30 minutes away from light, stained, and fixed in 4% paraformaldehyde neutral buffer (pH 7.4) overnight. The processed brain slices were photographed using a macro camera, and Image J image analysis software was used to calculate and count the cerebral infarct volume, and the measured results are shown in FIG. 7. The formula for calculating the percentage of infarct volume was (sum of the left uninfarcted area −sum of the right uninfarcted area)/sum of the left uninfarcted area×100%.
According to the five-level, four-point standard of score, the mortality and neuromotor dysfunction scores of each group of mice were performed, and the results are shown in FIG. 8. […]

The subject of assay [2] is dopaminergic neurons differentiated from iPSC derived from disseminated PD patients. The experiment in a line: mitochondrial fusion morphology (Mitotracker, Girk2 labeling) of iPSC differentiated dopaminergic neurons. It counts as cell-based, human. Conditions: II-23 0.6 μM, ACA 0.5 μM; Mitotracker staining, Girk2-positive neurons. The method, then:
Using normal and disseminated PD patient-derived induced pluripotent stem cells (iPSC), performing drug interventions using the TRPM2 inhibitors ACA and II-23 after they were induced and differentiated into mature dopaminergic neurons, the drug treating method is as follows: • a. Calculating the materials for the experiment, and starting preparing when the dopaminergic neurons are differentiated to the 8th day. The petri dishes should be treated with 33 μg/mL PDL overnight and washed with sterilized water. After drying, 2 μg/mL of laminin was added and incubated overnight. Both PDL and laminin can be recycled for reuse. • b. […] Fluorescence confocal imaging was performed using a confocal dish inoculated with 2 mL/dish, and cell viability assays were performed using a 96-well plate inoculated with 100 μL/well. […]
Positive dopamine neurons were labeled with a dopaminergic neuron marker molecule Girk2 antibody susceptible for SNc, and cellular mitochondria were labeled with the mitochondrial dye mitotracker as in FIG. 15. […] Finally, performing the fluorescence imaging: removing the secondary antibody, and washing three times with 1×PBS, adding 50% Glycerol for fluorescence protection, and then imaging with a Zeiss LSM880 laser confocal microscope, as shown in FIG. 15.

The test system is the same in assay [3]. The assay can be described thus: cell viability (cell titer glo) of iPSC differentiated dopaminergic neurons. It counts as cell-based, human. Particulars: II-23 0.6 μM, ACA 0.5 μM, from day 15 of culture; CTG kit. The method, then:
Using normal and disseminated PD patient-derived induced pluripotent stem cells (iPSC), performing drug interventions using the TRPM2 inhibitors ACA and II-23 after they were induced and differentiated into mature dopaminergic neurons, the drug treating method is as follows: • a. Calculating the materials for the experiment, and starting preparing when the dopaminergic neurons are differentiated to the 8th day. The petri dishes should be treated with 33 μg/mL PDL overnight and washed with sterilized water. After drying, 2 μg/mL of laminin was added and incubated overnight. Both PDL and laminin can be recycled for reuse. • b. Digesting and collecting the differentiated cells with Accutase, and counting with a cell counting plate, and then diluting to 500,000/mL with maturation medium (Y-27632 should be added). Fluorescence confocal imaging was performed using a confocal dish inoculated with 2 mL/dish, and cell viability assays were performed using a 96-well plate inoculated with 100 μL/well. Taking this time point as the 10th day, changing to Y-27632-free medium on the 11th day, and changing the medium every two days. • c. When the cells were cultured to the 15th day, treating the drugs to a final concentration with the medium, the working concentration of ACA is 0.5 μM, and the working concentration of II-23 is 0.6 μM, and the drug-containing medium was changed every four days. […]
(In general: ATP-based viability assays read luminescence as a measure of living cells.)

For `CCN(CC)C(=O)c1cc(C(=O)c2ccccc2)n2cccc2c1` [II-23, 5-Benzoyl-N, N-diethylindolizine-7-formamide], the “area of cerebral infarction caused by tMCAO” value in assay [1] (TTC staining 24 h after ischemia-reperfusion) is on record as “significantly reduced”. Further, the “neuromotor dysfunction scores caused by tMCAO” value in assay [1] (scored 24 h after ischemia-reperfusion) was “significantly reduced”. For the same compound, in assay [2], the “excessive mitochondrial fusion in dopaminergic neurons derived from PD patients” value is recorded as “reversed”. The “cell viability of differentiated dopaminergic neurons derived from disseminated PD patients” value in assay [3] is given as “restored”.

Source of the values: patent US20240228487A1, “FUSED HETEROCYCLIC COMPOUND AND APPLICATION THEREOF, PHARMACEUTICAL COMPOSITIONS CONTAINING SAME AND APPLICATION THEREOF” (ZHEJIANG UNIVERSITY, priority 2021, published 2024).
